Experimental data: ChEMBL document CHEMBL1201862, “PubChem BioAssay data set” (2004)
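Values below derive from 48-hour exposures of cells grown in 96-well plates, with endpoints linearly interpolated between the two concentrations bracketing the appropriate inhibition level. GI50: concentration for 50% inhibition of growth.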 The source made the active and inactive calls. Rule as the data show it: active = GI50 up to about 1.1 µM and inactive = higher.

Experiments:
Assay in all cases: NCI-60 cell line screen, 48 h
CCRF-CEM = tested on: CCRF-CEM
BT-549 = tested on: BT-549
K562 = tested on: K562
MCF7 = tested on: MCF7
MDA-N = tested on: MDA-N
HT-29 = tested on: HT-29
Hs-578T = tested on: Hs-578T
U-251 = tested on: U-251
TK-10 = tested on: TK-10
SK-MEL-28 = tested on: SK-MEL-28
HCT-116 = tested on: HCT-116
A549 = tested on: A549
LOX IMVI = tested on: LOX IMVI
NCI-H226 = tested on: NCI-H226
SK-MEL-5 = tested on: SK-MEL-5
NCI-H522 = tested on: NCI-H522
SN12C = tested on: SN12C
SNB-19 = tested on: SNB-19
HCT-15 = tested on: HCT-15
NCI/ADR-RES = tested on: NCI/ADR-RES
UACC-62 = tested on: UACC-62
UACC-257 = tested on: UACC-257
SW-620 = tested on: SW-620
MDA-MB-231 = tested on: MDA-MB-231
OVCAR-8 = tested on: OVCAR-8
M14 = tested on: M14
SF-295 = tested on: SF-295
PC-3 = tested on: PC-3
SF-539 = tested on: SF-539
SK-OV-3 = tested on: SK-OV-3
T47D = tested on: T47D
OVCAR-3 = tested on: OVCAR-3
HL-60 = tested on: HL-60
ACHN = tested on: ACHN
EKVX = tested on: EKVX
IGROV-1 = tested on: IGROV-1
KM12 = tested on: KM12
HOP-92 = tested on: HOP-92
COLO 205 = tested on: COLO 205
DU-145 = tested on: DU-145
CAKI-1 = tested on: CAKI-1
Malme-3M = tested on: Malme-3M
SF-268 = tested on: SF-268
HOP-62 = tested on: HOP-62
A498 = tested on: A498
SK-MEL-2 = tested on: SK-MEL-2
OVCAR-5 = tested on: OVCAR-5
SNB-75 = tested on: SNB-75
MOLT-4 = tested on: MOLT-4
OVCAR-4 = tested on: OVCAR-4
RPMI-8226 = tested on: RPMI-8226
NCI-H460 = tested on: NCI-H460
786-0 = tested on: 786-0
MDA-MB-435 = tested on: MDA-MB-435
UO-31 = tested on: UO-31
NCI-H23 = tested on: NCI-H23
RXF 393 = tested on: RXF 393
SR = tested on: SR
HCC 2998 = tested on: HCC 2998

Measured: GI50

CC(=O)c1csc2c1C(=O)c1scc(C(C)=O)c1C2=O
1.62 µM: HCT-15
active: CCRF-CEM 0.5 µM | K562 0.74 µM | MDA-N 0.176 µM | NCI-H522 0.52 µM | UACC-257 0.942 µM | MDA-MB-231 0.348 µM | T47D 0.323 µM | OVCAR-3 0.231 µM | HL-60 0.112 µM | MOLT-4 0.347 µM | OVCAR-4 0.587 µM | RPMI-8226 0.944 µM | NCI-H460 1.03 µM | MDA-MB-435 0.188 µM
inactive: BT-549 1.75 µM | MCF7 1.38 µM | HT-29 2.28 µM | Hs-578T 2.74 µM | U-251 1.43 µM | TK-10 2.54 µM | SK-MEL-28 1.97 µM | HCT-116 2.15 µM | A549 1.97 µM | LOX IMVI 1.41 µM | NCI-H226 2.25 µM | SK-MEL-5 1.44 µM | SN12C 1.7 µM | SNB-19 1.8 µM | NCI/ADR-RES 1.61 µM | UACC-62 1.98 µM | SW-620 1.94 µM | OVCAR-8 1.54 µM | M14 1.63 µM | SF-295 1.66 µM | PC-3 2.84 µM | SF-539 1.82 µM | SK-OV-3 2.22 µM | ACHN 1.68 µM | EKVX 1.89 µM | IGROV-1 1.57 µM | KM12 1.73 µM | HOP-92 2 µM | COLO 205 1.97 µM | DU-145 1.87 µM | CAKI-1 2.22 µM | Malme-3M 1.49 µM | SF-268 1.47 µM | HOP-62 1.8 µM | A498 1.54 µM | SK-MEL-2 1.89 µM | OVCAR-5 1.98 µM | SNB-75 2.03 µM | 786-0 2.05 µM | UO-31 2 µM | NCI-H23 1.37 µM | RXF 393 2.13 µM

O=C(NCc1cccc(C(F)(F)F)c1)c1cc2sccc2nc1C(F)(F)F
inactive: CCRF-CEM > 100 µM | BT-549 > 100 µM | K562 > 100 µM | MCF7 > 100 µM | MDA-N > 100 µM | HT-29 > 100 µM | Hs-578T 26.9 µM | U-251 27.4 µM | TK-10 64 µM | SK-MEL-28 > 100 µM | HCT-116 > 100 µM | A549 > 100 µM | NCI-H226 98.9 µM | SK-MEL-5 93.1 µM | NCI-H522 62.7 µM | SN12C 98.9 µM | SNB-19 34.6 µM | NCI/ADR-RES > 100 µM | UACC-62 > 100 µM | UACC-257 > 100 µM | SR > 100 µM | SW-620 > 100 µM | MDA-MB-231 51.4 µM | OVCAR-8 88.7 µM | M14 > 100 µM | SF-295 46.7 µM | PC-3 > 100 µM | SF-539 63.7 µM | SK-OV-3 81.5 µM | T47D > 100 µM | OVCAR-3 83.4 µM | ACHN 38.7 µM | EKVX > 100 µM | IGROV-1 > 100 µM | KM12 > 100 µM | HOP-92 50.9 µM | COLO 205 > 100 µM | CAKI-1 62.1 µM | Malme-3M > 100 µM | SF-268 64 µM | HOP-62 33.8 µM | SK-MEL-2 > 100 µM | OVCAR-5 > 100 µM | MOLT-4 82.2 µM | OVCAR-4 32.7 µM | RPMI-8226 > 100 µM | 786-0 25.5 µM | MDA-MB-435 > 100 µM | UO-31 > 100 µM | NCI-H23 > 100 µM | RXF 393 27.7 µM

O=[N+]([O-])c1cccc2nc3ccccc3c(NCCCCCNc3c4ccccc4nc4cccc([N+](=O)[O-])c34)c12
active: CCRF-CEM 0.0518 µM | BT-549 0.159 µM | K562 0.00466 µM | MCF7 0.0161 µM | MDA-N 0.0536 µM | HT-29 0.0195 µM | Hs-578T 0.0879 µM | U-251 0.0368 µM | TK-10 0.0242 µM | SK-MEL-28 0.171 µM | HCT-116 0.0117 µM | A549 0.0366 µM | LOX IMVI 0.168 µM | NCI-H226 0.245 µM | SK-MEL-5 0.0895 µM | NCI-H522 0.0859 µM | SN12C 0.0151 µM | SNB-19 0.116 µM | HCC 2998 0.0243 µM | NCI/ADR-RES 0.168 µM | UACC-62 0.153 µM | UACC-257 0.139 µM | SR 0.00271 µM | SW-620 0.0158 µM | MDA-MB-231 0.0269 µM | OVCAR-8 0.0492 µM | M14 0.0607 µM | SF-295 0.137 µM | PC-3 0.102 µM | SF-539 0.0304 µM | SK-OV-3 0.19 µM | T47D 0.179 µM | OVCAR-3 0.075 µM | HL-60 0.00745 µM | ACHN 0.0162 µM | EKVX 0.133 µM | IGROV-1 0.202 µM | KM12 0.0461 µM | HOP-92 0.0199 µM | COLO 205 0.0246 µM | DU-145 0.0211 µM | CAKI-1 0.0476 µM | Malme-3M 0.129 µM | SF-268 0.0313 µM | HOP-62 0.0579 µM | A498 0.111 µM | SK-MEL-2 0.159 µM | OVCAR-5 0.209 µM | SNB-75 0.197 µM | MOLT-4 0.0203 µM | OVCAR-4 0.153 µM | RPMI-8226 0.00828 µM | NCI-H460 0.0296 µM | 786-0 0.0157 µM | UO-31 0.134 µM | NCI-H23 0.0412 µM | RXF 393 0.0302 µM
0.0171 µM: HCT-15

FC(F)(F)c1ccc2nc(Sc3ccccn3)cnc2c1
50.5 µM: HCT-15
inactive: CCRF-CEM 2.94 µM | BT-549 29.6 µM | K562 51.4 µM | MCF7 74.8 µM | MDA-N 69.2 µM | HT-29 51.8 µM | Hs-578T 54.7 µM | U-251 18.8 µM | TK-10 31 µM | SK-MEL-28 > 100 µM | HCT-116 44.3 µM | A549 38.8 µM | LOX IMVI 40.6 µM | NCI-H226 26.2 µM | SK-MEL-5 20.7 µM | NCI-H522 21.7 µM | SN12C 35.5 µM | SNB-19 24.2 µM | HCC 2998 17.1 µM | NCI/ADR-RES 37.4 µM | UACC-62 29.2 µM | UACC-257 79.3 µM | SW-620 34.4 µM | MDA-MB-231 38.4 µM | OVCAR-8 38.8 µM | M14 48 µM | SF-295 60.1 µM | SF-539 16.7 µM | SK-OV-3 33.8 µM | T47D 28 µM | HL-60 4.14 µM | ACHN 16.7 µM | EKVX 49.2 µM | IGROV-1 75.5 µM | KM12 88.7 µM | HOP-92 89.1 µM | COLO 205 53.2 µM | DU-145 46.6 µM | CAKI-1 62.4 µM | Malme-3M > 100 µM | SF-268 49.2 µM | HOP-62 35.3 µM | A498 19.7 µM | SK-MEL-2 15.9 µM | OVCAR-5 > 100 µM | SNB-75 29.5 µM | MOLT-4 36.8 µM | OVCAR-4 79.8 µM | NCI-H460 48.4 µM | 786-0 23.5 µM | MDA-MB-435 58.1 µM | UO-31 22.7 µM | NCI-H23 28.4 µM | RXF 393 19.1 µM

COc1c(OC(C)C)cc2cc(O)c(C(=O)NC3Cc4ccc(c(Cl)n4)O[C@@H]4C=C5C#C/C(=C\C#CC6OC56C4OC4CC(C)(O)C(O)C(C)O4)C(OC4CC(O)C(N(C)C)C(C)O4)COC3=O)cc2c1OC (stereo not given in full)
inactive: BT-549 > 36.3 µM | MCF7 2.64 µM | MDA-N > 36.3 µM | Hs-578T > 36.3 µM | SK-MEL-28 > 36.3 µM | NCI-H226 > 36.3 µM | HCC 2998 > 36.3 µM | NCI/ADR-RES > 36.3 µM | PC-3 35.8 µM | T47D > 36.3 µM | HOP-92 > 36.3 µM | DU-145 11.5 µM | CAKI-1 10.9 µM | Malme-3M > 36.3 µM | A498 > 36.3 µM | SK-MEL-2 > 36.3 µM | SNB-75 > 36.3 µM | MDA-MB-435 > 36.3 µM | RXF 393 > 36.3 µM
